Assay results published in ChEMBL document CHEMBL2396640, “Exploring DOXP-reductoisomerase binding limits using phosphonated N-aryl and N-heteroarylcarboxamides as DXR inhibitors” (Bioorg Med Chem, 2013).
The source made the active and inactive calls. The rule behind the calls is not given here.

Key:
Escherichia coli [1] = experiment: Inhibition of Escherichia coli DXR using DOXP as substrate assessed as conversion of NADPH to NADP at 500 uM preincubated for 5 mins
Escherichia coli [2] = experiment: Binding affinity to Escherichia coli DXR at 20 uM by STD-NMR analysis
Plasmodium falciparum [3] = experiment: Inhibition of Plasmodium falciparum DXR using DOXP as substrate assessed as conversion of NADPH to NADP at 250 uM preincubated for 5 mins relative to control
Escherichia coli [4] = experiment: Inhibition of Escherichia coli DXR using DOXP as substrate assessed as conversion of NADPH to NADP at 250 uM preincubated for 5 mins relative to control
Escherichia coli [5] = experiment: Inhibition of Escherichia coli DXR using DOXP as substrate assessed as conversion of NADPH to NADP at 250 uM preincubated for 5 mins measured after 10 mins relative to control
Plasmodium falciparum [6] = experiment: Activation of Plasmodium falciparum DXR using DOXP as substrate assessed as conversion of NADPH to NADP at 250 uM preincubated for 5 mins relative to control
Escherichia coli [7] = experiment: Activation of Escherichia coli DXR using DOXP as substrate assessed as conversion of NADPH to NADP at 250 uM preincubated for 5 mins
Escherichia coli [8] = experiment: Activation of Escherichia coli DXR using DOXP as substrate assessed as conversion of NADPH to NADP at 500 uM preincubated for 5 mins

Row | SMILES | inhibition (Escherichia coli [1]) [%] | Activity (Escherichia coli [2]) | inhibition (Escherichia coli [4]) [%] | inhibition (Escherichia coli [5]) [%] | also measured
1 | CCOP(=O)(CC(=O)Nc1ccccn1)OCC | 58.5 | Active |  |  | 
2 | O=C(CP(=O)(O)O)NCc1ccco1 | 30 | Active |  |  | 
3 | O=C(CCP(=O)(O)O)Nc1cccc(O)c1 |  |  | 23.7 | 49.2 | inhibition (Plasmodium falciparum [3]): 1.1%
4 | CCOP(=O)(CC(=O)Nc1cccc(CO)c1)OCC |  |  | 40.4 |  | inhibition (Plasmodium falciparum [3]): 40.7%
5 | CCOP(=O)(CCCC(=O)Nc1cccc(O)c1)OCC |  |  |  | 0.8 | 
6 | COc1cccc(NC(=O)CCP(=O)(O)O)c1 |  |  | 8.7 |  | Activity (Plasmodium falciparum [6]): Active; Activity (Escherichia coli [7]): Active
7 | CCOP(=O)(CC(=O)Nc1cccc(C#N)c1)OCC |  |  | 21.9 | 11.9 | inhibition (Plasmodium falciparum [3]): 4.8%
8 | CCOP(=O)(CC(=O)Nc1cccc(Br)c1)OCC |  |  | 16.3 | 21.4 | Activity (Plasmodium falciparum [6]): Active
9 | N#Cc1cccc(NC(=O)CCCP(=O)(O)O)c1 |  | inactive |  |  | 
10 | O=C(CP(=O)(O)O)Nc1ccccn1 |  | Active |  |  | Activity (Escherichia coli [8]): Active
11 | CCOP(=O)(CCC(=O)Nc1nc(C)c(C(C)=O)s1)OCC | 0.3 | Active |  |  | 
12 | O=C(CCP(=O)(O)O)Nc1ccon1 | 0.2 | Active |  |  | 
13 | CCOP(=O)(CCCCC(=O)Nc1cccc(O)c1)OCC |  |  |  |  | Activity (Escherichia coli [7]): Active
14 | CCOP(=O)(CC(=O)Nc1nc(C)c(C(C)=O)s1)OCC | 21.6 | Active |  |  | 
15 | O=C(CCP(=O)(O)O)Nc1nccs1 | 0.2 | Active |  |  | 
16 | O=C(CCCP(=O)(O)O)Nc1cccc(O)c1 |  |  |  | 0.7 | 
17 | O=C(CCP(=O)(O)O)Nc1cccc(CO)c1 |  |  | 16 | 26.8 | inhibition (Plasmodium falciparum [3]): 10.9%
18 | O=C(CP(=O)(O)O)Nc1cccc(O)c1 |  |  | 34.4 | 43.9 | inhibition (Plasmodium falciparum [3]): 45.2%
19 | COc1cccc(NC(=O)CP(=O)(O)O)c1 |  |  | 31.9 | 17.8 | inhibition (Plasmodium falciparum [3]): 40.8%
20 | O=C(CCCCP(=O)(O)O)Nc1cccc(Br)c1 |  | inactive |  |  | Activity (Escherichia coli [7]): Active
21 | CCOP(=O)(CCC(=O)Nc1cccc(O)c1)OCC |  |  | 23.1 | 33.5 | Activity (Plasmodium falciparum [6]): Active
22 | CCOP(=O)(CCC(=O)Nc1nccs1)OCC | 0.1 | Active |  |  | 

Row | SMILES | inhibition (Escherichia coli [1]) [%] | Activity (Escherichia coli [2]) | inhibition (Escherichia coli [4]) [%] | inhibition (Escherichia coli [5]) [%] | also measured
23 | O=C(CCP(=O)(O)O)NCc1ccco1 | 0.3 | Active |  |  | 
24 | CCOP(=O)(CC(=O)Nc1cccc(OC)c1)OCC |  |  | 11 |  | Activity (Plasmodium falciparum [6]): Active
25 | CCOP(=O)(CCC(=O)Nc1cccc(CO)c1)OCC |  |  | 17.1 | 17.9 | Activity (Plasmodium falciparum [6]): Active
26 | O=C(CP(=O)(O)O)Nc1ccon1 | 12.2 | Active |  |  | 
27 | CCOP(=O)(CCC(=O)Nc1ccon1)OCC | 0 | Active |  |  | 
28 | CCOP(=O)(CC(=O)NCc1ccco1)OCC | 67.7 | Active |  |  | 
29 | CCOP(=O)(CCC(=O)Nc1cccc(OC)c1)OCC |  |  | 23.3 | 14.1 | Activity (Plasmodium falciparum [6]): Active
30 | CCOP(=O)(CC(=O)Nc1nccs1)OCC | 28.9 | Active |  |  | 
31 | CCOP(=O)(CC(=O)Nc1ccon1)OCC | 11.7 | Active |  |  | 
32 | COc1cccc(NC(=O)CCCCP(=O)(O)O)c1 |  |  |  |  | Activity (Escherichia coli [7]): Active
33 | CC(=O)c1sc(NC(=O)CCP(=O)(O)O)nc1C | 0 | Active |  |  | 
34 | O=C(CP(=O)(O)O)Nc1nccs1 | 7.4 | Active |  |  | 
35 | O=C(CCCCP(=O)(O)O)Nc1cccc(O)c1 |  | inactive |  |  | Activity (Escherichia coli [7]): Active
36 | CC(=O)c1sc(NC(=O)CP(=O)(O)O)nc1C | 16.6 | Active |  |  | 
37 | O=C(CP(=O)(O)O)Nc1cccc(Br)c1 |  |  | 22.3 | 26.8 | inhibition (Plasmodium falciparum [3]): 42%
38 | CCOP(=O)(CCC(=O)NCc1ccco1)OCC | 0.2 | Active |  |  | 
39 | CCOP(=O)(CCCCC(=O)Nc1cccc(OC)c1)OCC |  |  |  |  | Activity (Escherichia coli [7]): Active
40 | CCOP(=O)(CC(=O)Nc1cccc(O)c1)OCC |  |  | 44.6 | 24.4 | inhibition (Plasmodium falciparum [3]): 12%
41 | O=C(CCP(=O)(O)O)Nc1ccccn1 | 0 | Active |  |  | 
42 | N#Cc1cccc(NC(=O)CP(=O)(O)O)c1 |  |  | 8.2 | 20 | Activity (Plasmodium falciparum [6]): Active
43 | CCOP(=O)(CCCC(=O)Nc1cccc(Br)c1)OCC |  |  |  |  | Activity (Escherichia coli [7]): Active
44 | CCOP(=O)(CCC(=O)Nc1ccccn1)OCC |  | Active |  |  | Activity (Escherichia coli [8]): Active
